Data from patent US7709636B2, “Pyrazole sulfonylurea compound and herbicide” (Nissan Chemical Industries, Ltd., priority 2004, dated 2010).

Key:
Echinochloa crus-galli [1] = assay: Herbicidal effect test in submerged condition by treatment before weed-generation (1); format: in vivo; conditions: 0.64 g/a, water surface treated on day of sowing, 3 weeks after treatment
Outline: (§1)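 Effect grade 0–5 from herbicidal rate, 3 wk after water-surface treatment. Flooded alluvial soil, 4 cm depth, pre-emergence dosing on sowing day; rice transplanted at 2.5 leaf; 25 to 30° C greenhouse.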

Scirpus juncoides [2] = assay: as above; format: in vivo; conditions: 0.64 g/a, water surface treated on day of sowing, 3 weeks after treatment
Outline: as §1

Monochoria vaginalis [3] = assay: as above; format: in vivo; conditions: 0.64 g/a, water surface treated on day of sowing, 3 weeks after treatment
Outline: as §1

Stellaria media [4] = assay: Herbicidal effect test by foliage treatment; format: in vivo; conditions: 1.6 g/a; foliage treatment after growth of 14 days; 3 weeks after treatment
Outline: (§2)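 Foliage treatment at 14 days post-sowing with diluted wettable powder; greenhouse 25–30° C; score at 3 weeks.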

[5] = test system: Triticum aestivum (wheat); assay: Herbicidal effect test by foliage treatment; format: in vivo; conditions: 1.6 g/a; foliage treatment after growth of 14 days; 3 weeks after treatment
Outline: as §2

Echinochloa crus-galli [6] = assay: Herbicidal effect test by foliage treatment; format: in vivo; conditions: 1.6 g/a; foliage treatment after growth of 14 days; 3 weeks after treatment
Outline: as §2

Setaria viridis [7] = assay: Herbicidal effect test by foliage treatment; format: in vivo; conditions: 1.6 g/a; foliage treatment after growth of 14 days; 3 weeks after treatment
Outline: as §2

soybean (Glycine max) [8] = assay: Herbicidal effect test by foliage treatment; format: in vivo; conditions: 1.6 g/a; foliage treatment after growth of 14 days; 3 weeks after treatment
Outline: as §2

Polygonum blumei [9] = assay: Herbicidal effect test by foliage treatment; format: in vivo; conditions: 1.6 g/a; foliage treatment after growth of 14 days; 3 weeks after treatment
Outline: as §2

Beta vulgaris (beet) [10] = assay: Herbicidal effect test by foliage treatment; format: in vivo; conditions: 1.6 g/a; foliage treatment after growth of 14 days; 3 weeks after treatment
Outline: as §2

Digitaria adscendes [11] = assay: Herbicidal effect test by foliage treatment; format: in vivo; conditions: 1.6 g/a; foliage treatment after growth of 14 days; 3 weeks after treatment
Outline: as §2

corn (Zea mays) [12] = assay: Herbicidal effect test by foliage treatment; format: in vivo; conditions: 1.6 g/a; foliage treatment after growth of 14 days; 3 weeks after treatment
Outline: as §2

Black-grass [13] = assay: Herbicidal effect test by foliage treatment; format: in vivo; conditions: 1.6 g/a; foliage treatment after growth of 14 days; 3 weeks after treatment
Outline: as §2

Ambrosia elatior [14] = assay: Herbicidal effect test by foliage treatment; format: in vivo; conditions: 1.6 g/a; foliage treatment after growth of 14 days; 3 weeks after treatment
Outline: as §2

Avena fatua [15] = assay: Herbicidal effect test by foliage treatment; format: in vivo; conditions: 1.6 g/a; foliage treatment after growth of 14 days; 3 weeks after treatment
Outline: as §2

Chenopodium album [16] = assay: Herbicidal effect test by foliage treatment; format: in vivo; conditions: 1.6 g/a; foliage treatment after growth of 14 days; 3 weeks after treatment
Outline: as §2

Abutilon avicennae [17] = assay: Herbicidal effect test by foliage treatment; format: in vivo; conditions: 1.6 g/a; foliage treatment after growth of 14 days; 3 weeks after treatment
Outline: as §2

Amaranthus retroflexus [18] = assay: Herbicidal effect test by foliage treatment; format: in vivo; conditions: 1.6 g/a; foliage treatment after growth of 14 days; 3 weeks after treatment
Outline: as §2

Stellaria media [19] = assay: Herbicidal effect test by soil treatment; format: in vivo; conditions: 1.6 g/a, 3 weeks after treatment
Outline: (§3)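 Soil-surface spray of water-diluted wettable powder at predetermined formulation amount, applied after sowing; 3-week visual score.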

[20] = test system: Triticum aestivum (wheat); assay: Herbicidal effect test by soil treatment; format: in vivo; conditions: 1.6 g/a, 3 weeks after treatment
Outline: as §3

Echinochloa crus-galli [21] = assay: Herbicidal effect test by soil treatment; format: in vivo; conditions: 1.6 g/a, 3 weeks after treatment
Outline: as §3

Setaria viridis [22] = assay: Herbicidal effect test by soil treatment; format: in vivo; conditions: 1.6 g/a, 3 weeks after treatment
Outline: as §3

soybean (Glycine max) [23] = assay: Herbicidal effect test by soil treatment; format: in vivo; conditions: 1.6 g/a, 3 weeks after treatment
Outline: as §3

Polygonum blumei [24] = assay: Herbicidal effect test by soil treatment; format: in vivo; conditions: 1.6 g/a, 3 weeks after treatment
Outline: as §3

Beta vulgaris (beet) [25] = assay: Herbicidal effect test by soil treatment; format: in vivo; conditions: 1.6 g/a, 3 weeks after treatment
Outline: as §3

Digitaria adscendes [26] = assay: Herbicidal effect test by soil treatment; format: in vivo; conditions: 1.6 g/a, 3 weeks after treatment
Outline: as §3

corn (Zea mays) [27] = assay: Herbicidal effect test by soil treatment; format: in vivo; conditions: 1.6 g/a, 3 weeks after treatment
Outline: as §3

Black-grass [28] = assay: Herbicidal effect test by soil treatment; format: in vivo; conditions: 1.6 g/a, 3 weeks after treatment
Outline: as §3

Ambrosia elatior [29] = assay: Herbicidal effect test by soil treatment; format: in vivo; conditions: 1.6 g/a, 3 weeks after treatment
Outline: as §3

Avena fatua [30] = assay: Herbicidal effect test by soil treatment; format: in vivo; conditions: 1.6 g/a, 3 weeks after treatment
Outline: as §3

Chenopodium album [31] = assay: Herbicidal effect test by soil treatment; format: in vivo; conditions: 1.6 g/a, 3 weeks after treatment
Outline: as §3

Abutilon avicennae [32] = assay: Herbicidal effect test by soil treatment; format: in vivo; conditions: 1.6 g/a, 3 weeks after treatment
Outline: as §3

Amaranthus retroflexus [33] = assay: Herbicidal effect test by soil treatment; format: in vivo; conditions: 1.6 g/a, 3 weeks after treatment
Outline: as §3

direct sown rice [34] = assay: Herbicidal effect test by soil treatment; format: in vivo, Oryza sativa; conditions: 1.6 g/a, 3 weeks after treatment
Outline: as §3

direct sown rice [35] = assay: Herbicidal effect test by foliage treatment; format: in vivo, Oryza sativa; conditions: 1.6 g/a; foliage treatment after growth of 14 days; 3 weeks after treatment
Outline: as §2

Echinochloa crus-galli [36] = assay: Herbicidal effect test in submerged condition by treatment during weed-growth stage (1); format: in vivo; conditions: 0.64 g/a, treated at 1st to 2nd leaf stage, 3 weeks after treatment
Outline: (§4)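 Paddy-soil pots flooded to 4 cm water depth were sown and grown in a greenhouse at 25 to 30° C until weeds reached 1st to 2nd leaf stage. A wettable powder diluted in water to a predetermined formulation amount was applied to the water surface. Herbicidal effect was scored 3 weeks after treatment against set criteria.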

Scirpus juncoides [37] = assay: as above; format: in vivo; conditions: 0.64 g/a, treated at 1st to 2nd leaf stage, 3 weeks after treatment
Outline: as §4

Monochoria vaginalis [38] = assay: as above; format: in vivo; conditions: 0.64 g/a, treated at 1st to 2nd leaf stage, 3 weeks after treatment
Outline: as §4

COc1cc(OC)nc(NC(=O)NS(=O)(=O)c2c(C3=NOCC(C)(C)O3)c(C)nn2C)n1 [Compound 7, N-((4,6-dimethoxypyrimidin-2-yl)aminocarbonyl)-4-(5,5-dimethyl-5H,6H-1,4,2-dioxadin-3-yl)-1,3-dimethylpyrazole-5-sulfonamide]
herbicidal effect, A: Echinochloa crus-galli (Echinochloa crus-galli [1]): 5 (Herbicidal rate 90% or more (almost complete death))
herbicidal effect, B: Scirpus juncoides (Scirpus juncoides [2]): 5 (Herbicidal rate 90% or more (almost complete death))
herbicidal effect, C: Monochoria vaginalis (Monochoria vaginalis [3]): 5 (Herbicidal rate 90% or more (almost complete death))
herbicidal effect, M: Stellaria media (Stellaria media [4]): 5 (Herbicidal rate 90% or more (almost complete death))
herbicidal effect, e: Triticum aestivum (wheat) [5]: 5 (Herbicidal rate 90% or more (almost complete death))
herbicidal effect, A: Echinochloa crus-galli (Echinochloa crus-galli [6]): 5 (Herbicidal rate 90% or more (almost complete death))
herbicidal effect, E: Setaria viridis (Setaria viridis [7]): 4 (Herbicidal rate 70% or more and less than 90%)
herbicidal effect, c: soybean (Glycine max) (soybean (Glycine max) [8]): 5 (Herbicidal rate 90% or more (almost complete death))
herbicidal effect, L: Polygonum blumei (Polygonum blumei [9]): 5 (Herbicidal rate 90% or more (almost complete death))
herbicidal effect, f: Beta vulgaris (beet) (Beta vulgaris (beet) [10]): 5 (Herbicidal rate 90% or more (almost complete death))
herbicidal effect, D: Digitaria adscendes (Digitaria adscendes [11]): 5 (Herbicidal rate 90% or more (almost complete death))
herbicidal effect, b: corn (Zea mays) (corn (Zea mays) [12]): 5 (Herbicidal rate 90% or more (almost complete death))
herbicidal effect, G: Black-grass (Black-grass [13]): 5 (Herbicidal rate 90% or more (almost complete death))
herbicidal effect, I: Ambrosia elatior (Ambrosia elatior [14]): 5 (Herbicidal rate 90% or more (almost complete death))
herbicidal effect, F: Avena fatua (Avena fatua [15]): 5 (Herbicidal rate 90% or more (almost complete death))
herbicidal effect, K: Chenopodium album (Chenopodium album [16]): 5 (Herbicidal rate 90% or more (almost complete death))
herbicidal effect, H: Abutilon avicennae (Abutilon avicennae [17]): 5 (Herbicidal rate 90% or more (almost complete death))
herbicidal effect, J: Amaranthus retroflexus (Amaranthus retroflexus [18]): 4 (Herbicidal rate 70% or more and less than 90%)
herbicidal effect, M: Stellaria media (Stellaria media [19]): 5 (Herbicidal rate 90% or more (almost complete death))
herbicidal effect, e: Triticum aestivum (wheat) [20]: 5 (Herbicidal rate 90% or more (almost complete death))
herbicidal effect, A: Echinochloa crus-galli (Echinochloa crus-galli [21]): 4 (Herbicidal rate 70% or more and less than 90%)
herbicidal effect, E: Setaria viridis (Setaria viridis [22]): 4 (Herbicidal rate 70% or more and less than 90%)
herbicidal effect, c: soybean (Glycine max) (soybean (Glycine max) [23]): 3 (Herbicidal rate 40% or more and less than 70%)
herbicidal effect, L: Polygonum blumei (Polygonum blumei [24]): 5 (Herbicidal rate 90% or more (almost complete death))
herbicidal effect, f: Beta vulgaris (beet) (Beta vulgaris (beet) [25]): 5 (Herbicidal rate 90% or more (almost complete death))
herbicidal effect, D: Digitaria adscendes (Digitaria adscendes [26]): 4 (Herbicidal rate 70% or more and less than 90%)
herbicidal effect, b: corn (Zea mays) (corn (Zea mays) [27]): 4 (Herbicidal rate 70% or more and less than 90%)
herbicidal effect, G: Black-grass (Black-grass [28]): 5 (Herbicidal rate 90% or more (almost complete death))
herbicidal effect, I: Ambrosia elatior (Ambrosia elatior [29]): 5 (Herbicidal rate 90% or more (almost complete death))
herbicidal effect, F: Avena fatua (Avena fatua [30]): 4 (Herbicidal rate 70% or more and less than 90%)
herbicidal effect, K: Chenopodium album (Chenopodium album [31]): 5 (Herbicidal rate 90% or more (almost complete death))
herbicidal effect, H: Abutilon avicennae (Abutilon avicennae [32]): 4 (Herbicidal rate 70% or more and less than 90%)
herbicidal effect, J: Amaranthus retroflexus (Amaranthus retroflexus [33]): 5 (Herbicidal rate 90% or more (almost complete death))
herbicidal effect, d: direct sown rice (direct sown rice [34]): 5 (Herbicidal rate 90% or more (almost complete death))
herbicidal effect, d: direct sown rice (direct sown rice [35]): 2 (Herbicidal rate 20% or more and less than 40%)
herbicidal effect, A: Echinochloa crus-galli (Echinochloa crus-galli [36]): 5 (Herbicidal rate 90% or more (almost complete death))
herbicidal effect, B: Scirpus juncoides (Scirpus juncoides [37]): 5 (Herbicidal rate 90% or more (almost complete death))
herbicidal effect, C: Monochoria vaginalis (Monochoria vaginalis [38]): 5 (Herbicidal rate 90% or more (almost complete death))
